The values below are quoted from earlier work in paper PMC4405790 (Pharmaceutical research, 2012).

Entries after “also recorded” stand apart in the source; their conditions may differ.

For data set [1] the following is noted: aqueous.

For the compound `Cc1cc(C)cc(C(=O)c2c(C(C)C)c(=O)[nH]c(=O)n2CC2CC2)c1` [IQP-0528, 1-(3-Cyclopropyl)methyl-6-(3,5-dimethylbenzoyl)-5-isopropyl-2,4(1H,3H)-pyrimidinedione], in the data set on HIV, the “activity against laboratory strains of virus” value is on record as “nanomolar” and the “activity against representative clinical strains of HIV” value is on record as “nanomolar to subnanomolar”. Further, in the data set with HIV (cell-based in vitro assays), the “level of activity as a NNRTI” value is “subnanomolar” and the “level of activity as inhibitor of a step in virus entry” value was “nanomolar”. In data set [1], the solubility entry was “low solubility; also recorded: very low solubility”.
